# Results: patent publication US12655185B2, “Peptide inhibitors of interleukin-23 and their use to treat inflammatory diseases” (Protagonist Therapeutics, Inc., priority 2016, dated 2026)
# pIC50: −log10 of the molar value. Bridge positions count the residues as written; N and C are the ends. Peptide text beside a SMILES is read from it.
# What was measured:
# [1] = system: human IL-23-dependent release of IL-17 from mouse splenocytes; test: Mouse splenocyte assay; type: cell-based; conditions: IL-17A release; IL-23 20 ng/mL; 67 hours
# Protocol: Frozen mouse splenocytes (Hooke Lab), suspended in RPMI Medium 1640 (Life technologies #22400-089) supplemented with 10% heat inactivated FBS (Life technologies #16140-071), 1×MEM Non-Essential Amino Acid Solution (Life technologies #11140-050), 1 mM sodium pyruvate (Life technologies #11360-070), 100 units of Penicillin-Streptomycin (Life technologies #15140-122, 0.05 mM 2-mercaptoethanol (Life technologies #21985-023) and recombinant human IL-2 (R&D Systems #202-IL-010/CF), were seeded at 4×10E5 cells/well in a 96 well tissue culture plate. Serial dilutions of test peptides and IL-23 at a final concentration of 20 ng/mL were preincubated in a separate assay plate for 60 minutes at 37° C. in a 5% CO2 humidified incubator. Preincubated samples were then added to the culture plate containing splenocytes and incubated for an additional 67 hours at 37° C. in a 5% CO2 humidified incubator. A sandwich ELISA kit for mouse IL17A (Biolegend #436204) was used to measure the amount of IL-17A in each sample supernatants, according to manufacturer's instructions.
# [2] = target: T1, IL-23 binding to IL23R_huFC (human IL-23R) (Homo sapiens, UniProt P29460+Q9NPF7); test: IL23-IL23R Competitive Binding ELISA; conditions: inhibition of IL-23/IL-23R binding; IL-23 0.9 nM; class symbols; read-out: IC50 IL23R_huFC
# T1 sequence (Q9NPF7 20-189): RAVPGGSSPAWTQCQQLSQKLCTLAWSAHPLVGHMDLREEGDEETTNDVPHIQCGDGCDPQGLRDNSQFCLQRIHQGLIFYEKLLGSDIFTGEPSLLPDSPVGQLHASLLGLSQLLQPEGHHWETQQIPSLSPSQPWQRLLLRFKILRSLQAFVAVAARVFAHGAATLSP
# T1 sequence (P29460 23-328): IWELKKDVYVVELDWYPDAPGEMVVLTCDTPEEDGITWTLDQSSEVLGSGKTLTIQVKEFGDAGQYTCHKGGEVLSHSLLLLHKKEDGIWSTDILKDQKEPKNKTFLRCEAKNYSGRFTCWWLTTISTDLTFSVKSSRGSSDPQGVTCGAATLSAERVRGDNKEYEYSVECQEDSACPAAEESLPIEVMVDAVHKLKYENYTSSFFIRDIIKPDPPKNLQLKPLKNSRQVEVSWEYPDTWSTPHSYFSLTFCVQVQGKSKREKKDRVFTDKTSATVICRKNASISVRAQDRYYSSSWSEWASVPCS
# Protocol: Immulon® 4HBX plate was coated with 200 ng/well of IL23R_huFC and incubated overnight at 4° C. […] Serial dilutions of test peptides and IL-23 at a final concentration of 0.9 nM diluted in PBS were added to each well and incubated for 2 hours at room temperature. After the wells were washed, bound IL-23 was detected by incubation with 50 ng/well of goat anti-p40 polyclonal antibodies (R&D Systems #AF309) diluted in PBS for 1 hour at room temperature. The wells were again washed four times with PBST. […] The plate was finally washed as above. Signals were visualized with TMB One Component HRP Membrane Substrate, quenched with 2 M sulfuric acid and read spectrophotometrically at 450 nm.
# [3] = target: IL-13 binding to IL-13Ra1 (Homo sapiens, UniProt P35225); test: Binding of IL-13 to IL-13Ra1; conditions: data not shown
# [4] = target: T2, mouse IL-23 binding to mouse IL-23R (Mus musculus, UniProt P43432+Q9EQ14); test: Mouse IL23/IL23R huFc ELISA; conditions: data not shown
# T2 sequence (Q9EQ14 22-196): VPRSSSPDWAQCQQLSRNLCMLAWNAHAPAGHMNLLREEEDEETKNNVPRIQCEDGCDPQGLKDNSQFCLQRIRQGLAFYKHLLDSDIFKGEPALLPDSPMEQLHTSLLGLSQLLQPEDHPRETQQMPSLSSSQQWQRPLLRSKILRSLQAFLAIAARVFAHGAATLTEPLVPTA
# T2 sequence (P43432 23-335): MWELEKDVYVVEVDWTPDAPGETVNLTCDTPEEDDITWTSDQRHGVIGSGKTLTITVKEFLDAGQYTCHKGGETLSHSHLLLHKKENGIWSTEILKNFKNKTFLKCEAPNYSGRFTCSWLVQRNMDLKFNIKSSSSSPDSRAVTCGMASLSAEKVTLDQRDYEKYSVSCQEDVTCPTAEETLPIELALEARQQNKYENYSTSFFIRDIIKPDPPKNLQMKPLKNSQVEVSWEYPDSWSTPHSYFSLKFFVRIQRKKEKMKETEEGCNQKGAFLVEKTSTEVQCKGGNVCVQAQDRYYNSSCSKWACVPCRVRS
# Protocol: Certain peptides were tested to identify peptides that inhibit the binding of IL-23 to human IL-23R or mouse IL-23R, and inhibit IL-23/IL-23R functional activity, as described below. Each of these peptides comprised a disulfide bond between X5 and X34, except for Peptide 1, which comprises a disulfide bond between X4 and X33.
# [5] = target: T3, IL-12 binding to human IL-12Rβ1_huFC (Homo sapiens, UniProt P29459+P29460); test: Human IL12/IL12Rβ1 huFc ELISA
# T3 sequence (P29459 23-219): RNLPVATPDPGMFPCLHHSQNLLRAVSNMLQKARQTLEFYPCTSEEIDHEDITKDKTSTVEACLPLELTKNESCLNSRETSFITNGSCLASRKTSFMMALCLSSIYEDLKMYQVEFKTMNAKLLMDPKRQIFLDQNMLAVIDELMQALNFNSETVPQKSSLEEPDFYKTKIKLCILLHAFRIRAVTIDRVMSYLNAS
# T3 sequence (P29460 23-328): T1 sequence (P29460 23-328)
# Protocol: (§1) The ability of Peptide 10 to block binding of IL-23 to IL-12Rβ1 or binding of IL-12 to IL-12Rβ1 was also determined. Human IL-12Rβ1 ELISA assays were performed as follows: an assay plate was coated with 100 ng/well of human IL-12Rβ1_huFC and incubated overnight at 4° C. The wells were washed, blocked, and washed again. Serial dilutions of test peptides and either IL-23 or IL-12 at a fixed concentration corresponding to EC50 values were added to each well, and incubated for 2 hours at room temperature. After the wells were washed, bound IL-23 were detected with goat anti-p40 polyclonal antibodies followed by an HRP conjugated donkey anti-goat IgG, and bound IL-12 were detected with a biotin conjugated anti-p40 monoclonal antibody followed by HRP conjugated streptavidin. Signals were visualized with TMB One Component HRP Membrane Substrate and quenched with 2 M sulfuric acid.
# [6] = target: T4, IL-23 binding to human IL-12Rβ1_huFC (Homo sapiens, UniProt P29460+Q9NPF7); test: Human IL23/IL12Rβ1 huFc ELISA
# T4 sequence (Q9NPF7 20-189): T1 sequence (Q9NPF7 20-189)
# T4 sequence (P29460 23-328): T1 sequence (P29460 23-328)
# Protocol: as §1
# IL-6 binding to IL-6R = IL-6 binding to IL-6R (Homo sapiens, UniProt P05231); test: Binding of IL-6 to IL-6R; conditions: data not shown
smiles,measurement,setting,value
CC[C@H](C)[C@@H]1NC(=O)[C@H](CCCCN)NC(=O)[C@H](C)NC(=O)[C@H](Cc2c[nH]c3ccccc23)NC(=O)[C@H](CCCNC(=N)N)NC(=O)[C@H](CCC(N)=O)NC(=O)[C@H](CCC(=O)O)NC(=O)[C@H](CCC(N)=O)NC(=O)[C@H](CC(N)=O)NC(=O)[C@H](CC(C)C)NC(=O)[C@H](CC(N)=O)NC(=O)[C@@H]2CCCN2C(=O)[C@H](CC(=O)O)NC(=O)[C@H](C(C)C)NC(=O)CNC(=O)[C@H](C)NC(=O)[C@H](CCC(=O)O)NC(=O)[C@H](CO)NC(=O)[C@H](CCSC)NC(=O)[C@H](CCCNC(=N)N)NC(=O)[C@H](CCCNC(=N)N)NC(=O)[C@H](CC(C)C)NC(=O)[C@@H](NC(=O)[C@H](CCC(N)=O)NC(=O)[C@H](CCSC)NC(=O)[C@H](CC(N)=O)NC(=O)[C@H](Cc2ccccc2)NC(C)=O)CSSC[C@@H](C(N)=O)NC(=O)[C@H](CC(=O)O)NC(=O)[C@H](CC(=O)O)NC(=O)[C@H](CCSC)NC(=O)[C@H]([C@@H](C)CC)NC(=O)[C@H](CO)NC(=O)[C@H](CCCCN)NC1=O [Peptide 10] (Ac-FNMQCLRRMSEAGVDPNLNQEQRWAKIKSIMDDC-NH2; disulfide 5-34),pIC50,[1],5.80
same,pIC50,[2],5.00 to 6.00
same,blocking of binding of IL-13 to IL-13Ra1,[3],did not block
same,blocking of binding of mouse IL-23 to mouse IL-23R,[4],blocked
same,pIC50,"[5]; competition binding, IL-12 at EC50, read-out: Human IL12/IL12Rβ1huFc ELISA",< 4.00
same,blocking of binding of IL-12 to IL12Rβ1,[5]; result in words,did not block
same,pIC50,"[6]; competition binding, IL-23 at EC50",< 4.00
same,blocking of binding of IL-23 to IL-12Rβ1,[6]; result in words,did not block
same,blocking of binding of IL-6 to IL-6R,IL-6 binding to IL-6R,did not block
